Test results reported in patent publication US10940188B2, “Compounds and methods for treatment and prevention of Flavivirus infection” (priority 2016, dated 2021).
Like-named read-outs stand apart in the source and are kept apart here.

How the values were obtained:
[1] = system: ZIKV (FSS13025, PRVABC59, MR766) in SNB-19 cells; experiment: Anti-ZIKV activity in SNB-19 cells (NS1 Western blot, NS1 ELISA, immunofluorescence); assay type: cell-based, Zika virus; settings: for time-of-addition effect on ZIKV infection / IC50: SNB-19 cells; for time-of-addition effect on ZIKV infection: PRVABC59, added 1 hour before or 4 hours after inoculation; for anti-ZIKV activity in SNB-19 cells: compound added 1 hour prior to infection; for IC50: all three strains of ZIKV, read-out: IC50 of inhibition of ZIKV (NS1 read-out)
Experimental: FIGS. 2A-1, 2A-2, 2B-1, 2B-2, 2C-1, 2C-2, 2D-1, 2D-2, 2D-3, 2E-1, 2E-2, and 2F. […] Screening of select compounds for antiviral activity against ZIKV infection was carried out. Glioblastoma SNB-19 cells were treated with indicated compound at 10×AC50 (determined in the primary caspase screen) for 1 hour prior to inoculation with FSS-13025 (at MOI=1). Cells were harvested 24 hours post infection and analyzed by Western blot for ZIKV-NS1 or GAPDH (FIGS. 2A-1 and 2A-2). […] Three strains of virus (FSS-13025, PRVABC59, and MR766; MOI=1) were tested. Shown are sample western blot images (FIG. 2B-1) and ImageJ quantification (FIG. 2B-2). Values represent mean±s.d. (n=3; ***P<0.001; One-way ANOVA). Titration of Emricasan on SNB-19 cells for anti-ZIKV activity was conducted similarly (FIGS. 2C-1 and 2C-2). Values represent mean±s.d. […] Sample western blot (FIG. 2D-2) and ImageJ quantification (FIG. 2D-3) are shown for infection with the PRVABC59 strain (MOI=1). Results for additional strains are shown in FIGS. 6A-F. Values represent mean±s.d. (n=2; **P<0.01; ***P<0.001; One-way ANOVA). […] The concentration of NS1 in the medium of infected SNB-19 cells collected 24 hours post-infection was quantified by a ZIKV-NS1 ELISA kit (FIGS. 2E-1 and 2E-2). Values represent mean±s.d. (n=3; ***P<0.001; One-way ANOVA). […] SNB-19 cells were treated with each indicated compound at increasing concentrations for 1 hour before infection with PRVABC59 at a MOI=0.5 (n=3 cultures). Cell culture supernatant was collected 24 hours after infection, and infectious virions were quantified for focus-forming units (FFU) using Vero cells. Data represent mean±s.d.
FIGS. 3A, 3B, 3C-1, 3C-2, 3C-3, 3C-4, 3C-5, 3D-1, 3D-2, and 3E. […] SNB-19 cells were treated with the indicated compound at 92 μM for one hour prior to infection with FSS13025 or PRVABC59 (MOI=1). Cells were harvested 24 hours post infection and analyzed by western blot for ZIKV-NS1 or GAPDH. Shown are sample images and quantification (FIGS. 3D-1 and 3D-2). Values represent mean±s.d. (n=2; ***P<0.01; One-way ANOVA). Data were normalized to those obtained for DMSO-treated cells. Values represent mean±s.d. *P<0.05; **P<0.01; ***P<0.001; by one-way ANOVA, as compared to DMSO-treated cells.
FIGS. 18A, 18B, 18C-1, 18C-2, 18D, 18E, 18F, 18G-1, and 18G-2. […] 24 hours post infection, supernatants from SNB-19 cells were titrated onto naïve vero cells plated in a monolayer in 96-well plates for infectious focus-forming unit assay as previously described and focus forming units quantified. […] Immunofluorescence (IF) staining (FIG. 18C-1) and quantification (FIG. 18C-2) of ZIKV positive SNB-19 cells following infection with one of three ZIKV strains and treatment with emetine at 0.01, 0.1, or 1 μM. […] Drug was added at 1 μM either 1-hour prior to infection with PRVABC59-ZIKV, or 4-hours post infection with PRVABC59-ZIKV. […] Drug was added at 1 μM either 1-hour prior to infection with PRVABC59-ZIKV, or 4-hours post infection with PRVABC59-ZIKV.
Cells were harvested by trypsinization, pelleting, and subsequent lysis in 1× Laemlli buffer and boiled, or directly lysed in 1× Laemlli buffer and boiled. Antibodies used were anti-ZIKV NS1 (1:2000; BF-1225-36, BioFront Technologies, Tallahassee, Fla.) or GAPDH (Santa Cruz Biotechnology, Texas).

ZIKV PRVABC59 in hNPCs = experiment: ZIKV infection of hNPCs (NS1 Western blot); assay type: cell-based, Zika virus
Experimental: FIGS. 4A-1, 4A-2, 4B-1, 4B-2, 4B-3, 4C-1, 4C-2, 4D-1, and 4D-2. […] Cells were fixed 24 hours post infection and stained for ZIKVE (green) and DAPI (blue). Scale bar: 50 μm. Also shown is the quantification of ZIKV-infected astrocytes with multiple compound concentrations (FIG. 4A-2). Values represent mean±s.d. (n=6; ***P<0.001; One-way ANOVA). Shown in FIG. 4B-3 is virus production from compound-treated iPSC-derived human astrocytes (as in FIG. 2F) (n=3 cultures). Data represent mean±s.d. […] Shown are sample images and quantification (FIGS. 4B-1 and 4B-2). Values represent mean±s.d. (n=2; ***P<0.01; One-way ANOVA). […] Note that Emricasan and PHA-690509 inhibit the increased caspase-3 activity in a concentration-dependent manner in human astrocytes infected with FSS13025-ZIKV or MR766 ZIKV, and improve cell viability as measured by ATP production (FIGS. 4C-1, 4C-2, 4D-1, and 4D-2). […]
SNB-19 cells, BJ astrocytes, or hNPCs were seeded in 12-well plates at approximately 3e5 cells/well. […] Cells and supernatant were harvested 24-48 hours post infection and analyzed by western blot or IFA. Western blot bands were quantified and IFA images counted using ImageJ (NIH, Bethesda, Md.).
SNB-19, BJ astrocyte, or NPCs were seeded in 12-well plates at approximately 3e5 cells/well. […] Cells and supernatant were harvested 24-48 hours post infection and analyzed by western blot or IFA. […]

| Compound | time-of-addition effect on ZIKV infection [1] | anti-ZIKV activity in SNB-19 cells [1] | IC50 ([1]; Zika virus) [µM] | inhibition of ZIKV infection in hNPCs (ZIKV PRVABC59 in hNPCs) | IC50 [1] [µM] |
| --- | --- | --- | --- | --- | --- |
| CC[C@H]1CN2CCc3cc(OC)c(OC)cc3[C@@H]2C[C@@H]1C[C@H]1NCCc2cc(OC)c(OC)cc21 [Emetine] | effective against ZIKV infection when added both before or after infection | reduces ZIKV infection in a dosage dependent manner | – | – | – |
| C[C@H](NC(=O)C(=O)Nc1ccccc1C(C)(C)C)C(=O)N[C@@H](CC(=O)O)C(=O)COc1c(F)c(F)cc(F)c1F [Emricasan] | – | no significant differences were found | – | – | – |
| O=C(Nc1ccc([N+](=O)[O-])cc1Cl)c1cc(Cl)ccc1O [Niclosamide] | effectively inhibited ZIKV infection when added either 1 hour before or 4 hours after virus inoculation | significantly inhibited ZIKV infection in SNB-19 cells | 0.5 to 2 | inhibited ZIKV^PR infection | – |
| CC(=O)Nc1ccc([C@H](C)C(=O)Nc2ncc(C(C)C)s2)cc1 [PHA-690509] | effectively inhibited ZIKV infection when added either 1 hour before or 4 hours after virus inoculation | significantly inhibited ZIKV infection in SNB-19 cells | – | inhibited ZIKV^PR infection | 12 to 36 |
